The values that follow come from patent US7098340B2, “Benzyl sulfonamide derivatives” (Warner Lambert Company LLC, priority 2003, dated 2006).

Where only a bound is given, the exact number is not on record here.

For orientation: IC50 means the point on the concentration scale where inhibition reaches its midpoint. Read a high IC50 as lower potency.

The experiment concerns the target T1, androgen receptor (Homo sapiens, UniProt P10275).
T1 sequence (P10275 1-920 Q868H): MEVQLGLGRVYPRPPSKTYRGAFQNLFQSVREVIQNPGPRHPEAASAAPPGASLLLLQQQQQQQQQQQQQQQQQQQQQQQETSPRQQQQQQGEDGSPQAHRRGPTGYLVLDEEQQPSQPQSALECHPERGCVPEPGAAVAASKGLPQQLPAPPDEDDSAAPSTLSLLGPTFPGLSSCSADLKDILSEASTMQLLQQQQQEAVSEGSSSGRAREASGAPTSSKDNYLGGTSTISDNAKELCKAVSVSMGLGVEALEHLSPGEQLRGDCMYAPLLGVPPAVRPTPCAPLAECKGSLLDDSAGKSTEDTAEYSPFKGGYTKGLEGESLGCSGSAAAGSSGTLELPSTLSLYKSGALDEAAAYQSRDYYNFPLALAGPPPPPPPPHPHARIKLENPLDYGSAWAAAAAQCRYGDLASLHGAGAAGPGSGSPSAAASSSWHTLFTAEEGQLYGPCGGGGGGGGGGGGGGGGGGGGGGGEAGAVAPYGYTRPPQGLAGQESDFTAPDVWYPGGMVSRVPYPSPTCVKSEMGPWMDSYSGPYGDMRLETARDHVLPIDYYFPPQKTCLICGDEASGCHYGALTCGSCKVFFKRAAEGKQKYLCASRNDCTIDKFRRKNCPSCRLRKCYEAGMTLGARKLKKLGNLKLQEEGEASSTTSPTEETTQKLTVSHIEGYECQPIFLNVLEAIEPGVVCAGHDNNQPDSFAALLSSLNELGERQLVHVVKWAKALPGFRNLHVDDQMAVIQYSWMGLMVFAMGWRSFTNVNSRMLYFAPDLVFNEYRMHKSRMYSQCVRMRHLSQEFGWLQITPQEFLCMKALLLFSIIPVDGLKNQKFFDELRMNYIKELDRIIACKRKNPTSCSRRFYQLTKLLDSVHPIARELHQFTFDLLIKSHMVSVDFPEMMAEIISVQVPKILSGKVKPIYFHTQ
Description: AR Antagonist Cell Assay (MMTV-luciferase reporter, DHT-stimulated). The experiment is classed as cell-based. The settings on record: MDA-MB453-MMTV clone 54-19 cells; antagonism of 100 pM DHT, 17 hr, luciferase readout. The method, boiled down: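 MDA-MB453 cells stably carrying MMTV-ARE-firefly luciferase, in 1% charcoal-treated serum, preincubated 30 min with compound (10 uM or 1 uM) then stimulated with 100 pM DHT for 17 h at 37° C. Luminescence read; result as % inhibition of DHT fold induction.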
(In general: A reporter such as luciferase makes a cellular process visible.)
Turning to `COc1cccc(NS(=O)(=O)c2ccc(Cc3ccc4[nH]c(=O)cc(C(F)(F)F)c4c3)cc2)c1` [Example 50, N-(3-Methoxyphenyl)-4-(2-oxo-4-trifluoromethyl-1,2-dihydroquinolin-6-ylmethyl)-benzenesulfonamide], the IC50 was > 10 µM. To `O=c1cc(C(F)(F)F)c2cc(Cc3ccc(S(=O)(=O)NCCCn4ccnc4)cc3)ccc2o1` [Example 174, N-(3-Imidazol-1-ylpropyl)-4-(2-oxo-4-triftuoromethyl-2H-chromen-6-ylmethyl)benzenesulfonamide] belongs 5.5 µM; to `O=c1cc(C(F)(F)F)c2cc(Cc3ccc(S(=O)(=O)NCCCn4ccnc4)cc3)ccc2[nH]1` [Example 60, N-(3-Imidazol-1-ylpropyl)-4-(2-oxo-4-trifluoromethyl-1,2-dihydroquinolin-6-ylmethyl)-benzenesulfonamide], 9.16 µM; to `O=c1cc(C(F)(F)F)c2cc(Cc3ccc(S(=O)(=O)NCC(c4ccccc4)c4ccccc4)cc3)ccc2o1` [Example 206, N-(2,2-Diphenylethyl)-4-(2-oxo-4-trifluoromethyl-2H-chromen-6-ylmethyl)benzene-sulfonamide], 5.74 µM. To `COc1cccc(NS(=O)(=O)c2ccc(Cc3ccc4oc(=O)cc(C(F)(F)F)c4c3)cc2)c1` [Example 156, N-(3-Methoxyphenyl)-4-(2-oxo-4-trifluoromethyl-2H-chromen-6-ylmethyl)benzene-sulfonamide] belongs 1.72 µM.
